Experimental data reported in patent US7312245B2 (priority 2001, dated 2007).
Read-outs that look alike come from different tables or passages of the source.

What was measured:
Format in all cases: in vivo
Pyricularia oryzae [1] = conditions: spray application of wettable powder diluted to 500 ppm; rice Koshihikari 2-leaf stage; spray-inoculated with Pyricularia oryzae spores; examined after 7 days
Pyricularia oryzae [2] = conditions: nursery box treated with granules 50 g per box; rice Koshihikari; inoculated 30 days after transplantation; lesions counted after 1 week
Pyricularia oryzae [3] = conditions: granules applied to water surface at 3 kg/10 ares; rice Koshihikari; inoculated 30 days after application; lesions checked after 1 week

Compound | Grade of Effect (preventive value, rice blast controlling effect) (Pyricularia oryzae [1]) | Grade of Effect (preventive value, rice blast controlling effect) (Pyricularia oryzae [2]) | Grade of Effect (preventive value, rice blast controlling effect) (Pyricularia oryzae [3])
CSCCOC(=O)NC(CNC(=O)c1ccc(Cl)cc1)C(C)C (stereo not drawn) [compound 1258] | A (100%) | A (From 80% to 100%) | A (From 80% to 100%)
CSCCOC(=O)NC(CNC(=O)c1ccc(C)cc1)C(C)C (stereo not drawn) [compound 1261] | A (100%) | A (From 80% to 100%) | A (From 80% to 100%)
CC(C)C(CNC(=O)c1ccc(Cl)cc1)NC(=O)OCCS(C)(=O)=O (stereo not drawn) [compound 1273] | A (100%) | A (From 80% to 100%) | A (From 80% to 100%)
Cc1ccc(C(=O)NCC(NC(=O)OCCS(C)(=O)=O)C(C)C)cc1 (stereo not drawn) [compound 1276] | A (100%) | A (From 80% to 100%) | A (From 80% to 100%)
